Measurements as given in ChEMBL document CHEMBL1201862, “PubChem BioAssay data set” (2004).
Calls of active or inactive are those of the source.

Tests used:
[1] = system: A-375; experiment: MITF: Counter assay: A375 proliferation Measured in Cell-Based System Using Plate Reader - 2084-03_Inhibitor_Dose_DryPowder_Activity. [Related pubchem assays (depositor defined):AID488944]; type: functional; conditions: Homo sapiens
[2] = target: T1, Microphthalmia-associated transcription factor (Homo sapiens, UniProt O75030); experiment: reducers of TRPM1 reporter luminescence, concentration series – cell-based, SK-MEL-5, cherry-picked, set 3, MITF inhibitor project, dose response (AID 493073); type: functional;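 further: SK-MEL-5 melanoma cells with luciferase driven by the MITF target TRPM1 promoter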
T1 sequence (O75030 whole entry): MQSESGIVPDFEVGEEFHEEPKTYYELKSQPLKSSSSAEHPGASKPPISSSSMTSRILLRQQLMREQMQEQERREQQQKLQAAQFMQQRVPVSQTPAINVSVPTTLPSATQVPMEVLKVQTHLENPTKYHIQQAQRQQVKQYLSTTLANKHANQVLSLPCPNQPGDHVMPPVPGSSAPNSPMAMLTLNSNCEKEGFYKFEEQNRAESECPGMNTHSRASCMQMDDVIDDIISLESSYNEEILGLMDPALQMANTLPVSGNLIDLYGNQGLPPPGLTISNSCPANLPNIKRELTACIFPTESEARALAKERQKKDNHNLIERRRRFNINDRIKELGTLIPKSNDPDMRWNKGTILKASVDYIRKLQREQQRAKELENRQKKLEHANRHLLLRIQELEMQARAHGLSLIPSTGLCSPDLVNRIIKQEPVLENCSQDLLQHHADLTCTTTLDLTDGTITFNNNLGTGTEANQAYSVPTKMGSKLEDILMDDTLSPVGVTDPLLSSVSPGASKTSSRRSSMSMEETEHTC

[3] = system: A-375; experiment: proliferation inhibition in MITF-low A375 cells – cell-based, cherry-pick samples, set 2, counter-screen for MITF modulator project, dose response (AID 540335); type: functional; conditions: Homo sapiens
[4] = viability loss in HeLa cells – cytotoxicity control for MgcRacGAP inhibitor project, dose response (AID 624300); type: functional
[5] = target: T2, Rac GTPase-activating protein 1 (Homo sapiens, UniProt Q9H0H5); experiment: blockers of MgcRacGAP-driven Rac1 GTP hydrolysis – biochemical, ADP Hunter fluorescence, primary and confirmatory, confirmation (AID 624330); type: functional
T2 sequence (Q9H0H5 whole entry): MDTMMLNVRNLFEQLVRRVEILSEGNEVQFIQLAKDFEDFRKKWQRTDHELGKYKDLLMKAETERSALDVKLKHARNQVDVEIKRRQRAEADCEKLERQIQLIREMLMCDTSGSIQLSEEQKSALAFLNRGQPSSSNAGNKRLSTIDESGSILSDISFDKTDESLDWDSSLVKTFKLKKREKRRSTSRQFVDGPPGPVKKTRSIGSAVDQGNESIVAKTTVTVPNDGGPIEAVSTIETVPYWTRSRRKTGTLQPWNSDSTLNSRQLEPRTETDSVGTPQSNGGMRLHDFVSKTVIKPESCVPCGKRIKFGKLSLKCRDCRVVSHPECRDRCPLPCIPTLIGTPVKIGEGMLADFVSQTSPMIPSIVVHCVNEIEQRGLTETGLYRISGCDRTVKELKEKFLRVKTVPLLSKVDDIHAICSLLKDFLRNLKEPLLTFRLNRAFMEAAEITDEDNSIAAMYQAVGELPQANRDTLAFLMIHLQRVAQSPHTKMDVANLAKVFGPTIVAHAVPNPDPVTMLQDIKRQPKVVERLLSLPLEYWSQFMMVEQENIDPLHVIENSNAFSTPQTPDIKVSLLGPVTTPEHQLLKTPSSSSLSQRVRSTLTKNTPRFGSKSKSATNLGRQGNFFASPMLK

[6] = target: T3, Phosphomannomutase 2 (Homo sapiens, UniProt O15305); experiment: Counter screen SAR assay for PMM2 inhibitors via a fluorescence intensity assay. [Related pubchem assays (depositor defined):AID1545, AID1574]
T3 sequence (O15305 whole entry): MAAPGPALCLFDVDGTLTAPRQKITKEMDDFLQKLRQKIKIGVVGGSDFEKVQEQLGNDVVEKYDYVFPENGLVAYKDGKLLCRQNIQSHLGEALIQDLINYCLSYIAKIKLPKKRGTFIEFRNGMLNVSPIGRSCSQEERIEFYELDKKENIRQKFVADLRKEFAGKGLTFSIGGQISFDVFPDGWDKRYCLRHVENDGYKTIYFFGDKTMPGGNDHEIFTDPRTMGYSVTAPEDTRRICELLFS

[7] = target: T4, Voltage-gated N-type calcium channel alpha-1B subunit/Amyloid beta A4 precursor protein-binding family A member 1 (Homo sapiens, UniProt Q00975+Q02410); type: protein assay
[8] = target: Eukaryotic translation initiation factor 4E (Mus musculus, UniProt P63073); experiment: blockers of eIF4G binding by eIF4E – biochemical, TR-FRET, dose response (AID 855); type: functional;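 further: potency for disrupting eIF4E binding to eIF4GI seen as loss of FRET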
[9] = target: T5, X-box-binding protein 1 (Homo sapiens, UniProt P17861); type: functional, Cricetulus griseus;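 further: confirmatory dose-response counter-screen serving a CHOP assay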
T5 sequence (P17861 whole entry): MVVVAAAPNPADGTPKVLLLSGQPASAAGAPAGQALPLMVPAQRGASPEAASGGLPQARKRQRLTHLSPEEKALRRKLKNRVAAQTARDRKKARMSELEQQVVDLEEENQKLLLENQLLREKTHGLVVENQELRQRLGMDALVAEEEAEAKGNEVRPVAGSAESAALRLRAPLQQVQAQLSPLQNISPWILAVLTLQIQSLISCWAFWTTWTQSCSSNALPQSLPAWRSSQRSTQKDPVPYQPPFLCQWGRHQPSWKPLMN

[10] = target: Heat shock protein HSP 90-alpha (Homo sapiens, UniProt P07900); type: functional, organism-based
[11] = target: T6, Mannose-6-phosphate isomerase (Homo sapiens, UniProt P34949); experiment: phosphomannose isomerase inhibition – biochemical, fluorescence intensity, confirmation (AID 1535)
T6 sequence (P34949 whole entry): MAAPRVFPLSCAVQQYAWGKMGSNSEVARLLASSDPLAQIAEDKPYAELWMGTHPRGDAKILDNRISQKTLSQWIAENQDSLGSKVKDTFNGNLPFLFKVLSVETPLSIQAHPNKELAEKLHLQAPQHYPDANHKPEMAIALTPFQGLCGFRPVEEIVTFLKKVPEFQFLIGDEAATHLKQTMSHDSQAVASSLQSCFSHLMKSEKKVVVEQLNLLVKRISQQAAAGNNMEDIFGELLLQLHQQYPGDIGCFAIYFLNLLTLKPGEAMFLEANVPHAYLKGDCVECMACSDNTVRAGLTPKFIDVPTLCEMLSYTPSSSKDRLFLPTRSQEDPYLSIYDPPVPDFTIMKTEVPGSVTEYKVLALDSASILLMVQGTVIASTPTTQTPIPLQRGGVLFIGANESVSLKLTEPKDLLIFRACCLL

[12] = target: T6, Mannose-6-phosphate isomerase; experiment: MPI inhibition at elevated mannose 6-phosphate – biochemical, fluorescence intensity, high mannose 6-phosphate, primary screen (AID 1220)
[13] = target: T4, Voltage-gated N-type calcium channel alpha-1B subunit/Amyloid beta A4 precursor protein-binding family A member 1; type: protein assay; remark: listed apart in the source
[14] = system: Escherichia coli; experiment: microbe, parasite or virus in culture
[15] = target: T7, Small ubiquitin-related modifier 1 (Homo sapiens, UniProt P63165); experiment: SUMO1 protein interaction blockers, potency – biochemical, fluorescence polarization, uHTS hits, dose response (AID 624382); type: functional; conditions: read-out: IC50_Mean
[16] = target: T8, DNA repair protein RAD52 homolog (Homo sapiens, UniProt P43351); type: functional, biochemical
T8 sequence (P43351 whole entry): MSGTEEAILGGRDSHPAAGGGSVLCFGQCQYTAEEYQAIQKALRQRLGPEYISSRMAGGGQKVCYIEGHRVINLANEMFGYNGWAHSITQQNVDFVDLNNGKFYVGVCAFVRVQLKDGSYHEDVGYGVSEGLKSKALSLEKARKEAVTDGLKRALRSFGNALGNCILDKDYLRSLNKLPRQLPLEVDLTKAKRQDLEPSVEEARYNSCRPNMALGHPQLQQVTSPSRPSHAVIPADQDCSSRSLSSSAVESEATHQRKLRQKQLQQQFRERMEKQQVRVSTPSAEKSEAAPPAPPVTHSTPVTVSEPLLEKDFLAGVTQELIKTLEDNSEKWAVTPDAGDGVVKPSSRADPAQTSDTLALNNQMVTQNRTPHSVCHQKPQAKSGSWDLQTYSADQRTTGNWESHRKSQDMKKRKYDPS

[17] = system: BJ; experiment: BJ-TERT fibroblast viability loss – cell-based, RAS-independent, luminescence, dose response (AID 1933); type: functional; conditions: Homo sapiens
[18] = target: T9, Streptokinase A (Streptococcus pyogenes serotype M1, UniProt P10520); experiment: viability-normalized secreted streptokinase activity reduction – plasminogen activation absorbance, OD405, dose response (AID 1914); type: functional, Streptococcus pyogenes M1 GAS;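 further: secreted streptokinase activity via plasminogen activation per viability signal from cell pellet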
T9 sequence (P10520 whole entry): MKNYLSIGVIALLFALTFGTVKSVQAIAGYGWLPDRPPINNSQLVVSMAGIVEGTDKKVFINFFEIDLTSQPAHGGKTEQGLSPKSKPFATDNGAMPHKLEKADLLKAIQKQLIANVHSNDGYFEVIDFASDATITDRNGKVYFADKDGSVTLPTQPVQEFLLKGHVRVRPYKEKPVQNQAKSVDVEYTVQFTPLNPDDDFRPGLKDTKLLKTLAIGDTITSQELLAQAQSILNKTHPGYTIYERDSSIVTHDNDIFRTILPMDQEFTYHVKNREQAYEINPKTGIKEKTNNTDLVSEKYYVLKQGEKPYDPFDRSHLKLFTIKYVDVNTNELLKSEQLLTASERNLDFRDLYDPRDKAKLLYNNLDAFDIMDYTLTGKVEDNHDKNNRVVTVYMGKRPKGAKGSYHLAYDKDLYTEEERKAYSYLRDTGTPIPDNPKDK

[19] = system: Streptococcus; experiment: GAS UMAA2166 growth inhibition – luminescence, BacTiterGlo, counter-screen for streptokinase expression inhibitor project, dose response (AID 1915); type: functional, organism-based; conditions: Streptococcus;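 further: potency for reduction of bacterial viability or growth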
[20] = target: T7, Small ubiquitin-related modifier 1; experiment: SUMO1 protein-protein binding blockers, potency – biochemical, FRET, dose response (AID 624383); type: functional; conditions: read-out: IC50_Mean
[21] = system: BJ; experiment: cells; type: functional, cell-based; conditions: Homo sapiens
[22] = system: BJ; experiment: BJ-TERT-LT-ST fibroblast viability loss – cell-based, RAS-independent, luminescence, dose response (AID 1935); type: functional; conditions: Homo sapiens;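 further: BJ fibroblasts immortalized with TERT plus LT and ST oncogenes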
[23] = DRD fibroblast viability loss – cell-based, non-viral oncogenic, luminescence, dose response (AID 1934); type: functional; conditions: Homo sapiens
[24] = system: Streptococcus sp. 'group A'; experiment: Streptococcus pyogenes SK(-)GAS viability under kanamycin – luminescence, BacTiterGlo, confirmation, counter-screen for streptokinase expression inhibitor project, dose response (AID 1900); type: functional, organism-based; conditions: Streptococcus sp. 'group A'
[25] = target: Cytochrome P450 2D6 (Homo sapiens, UniProt P10635);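 further: CYP2D6 member of a cytochrome P450 panel assay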
[26] = viability of PTEN-deleted HCT116 cells – cell-based, HCT116 PTEN knockout, dose response (AID 1047); type: functional;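 further: HCT116 colon tumor cells with PTEN knocked out; cells exposed to compound for 60 hours before readout; potency for loss of cell viability measured by luminescence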
[27] = viability of HCT116 lacking mutant beta-catenin – cell-based, human colon tumor, dose response (AID 1045); type: functional;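 further: HCT116 colon tumor cells with beta catenin knocked out; cells exposed to compound for 60 hours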

T4 sequence (Q00975 whole entry): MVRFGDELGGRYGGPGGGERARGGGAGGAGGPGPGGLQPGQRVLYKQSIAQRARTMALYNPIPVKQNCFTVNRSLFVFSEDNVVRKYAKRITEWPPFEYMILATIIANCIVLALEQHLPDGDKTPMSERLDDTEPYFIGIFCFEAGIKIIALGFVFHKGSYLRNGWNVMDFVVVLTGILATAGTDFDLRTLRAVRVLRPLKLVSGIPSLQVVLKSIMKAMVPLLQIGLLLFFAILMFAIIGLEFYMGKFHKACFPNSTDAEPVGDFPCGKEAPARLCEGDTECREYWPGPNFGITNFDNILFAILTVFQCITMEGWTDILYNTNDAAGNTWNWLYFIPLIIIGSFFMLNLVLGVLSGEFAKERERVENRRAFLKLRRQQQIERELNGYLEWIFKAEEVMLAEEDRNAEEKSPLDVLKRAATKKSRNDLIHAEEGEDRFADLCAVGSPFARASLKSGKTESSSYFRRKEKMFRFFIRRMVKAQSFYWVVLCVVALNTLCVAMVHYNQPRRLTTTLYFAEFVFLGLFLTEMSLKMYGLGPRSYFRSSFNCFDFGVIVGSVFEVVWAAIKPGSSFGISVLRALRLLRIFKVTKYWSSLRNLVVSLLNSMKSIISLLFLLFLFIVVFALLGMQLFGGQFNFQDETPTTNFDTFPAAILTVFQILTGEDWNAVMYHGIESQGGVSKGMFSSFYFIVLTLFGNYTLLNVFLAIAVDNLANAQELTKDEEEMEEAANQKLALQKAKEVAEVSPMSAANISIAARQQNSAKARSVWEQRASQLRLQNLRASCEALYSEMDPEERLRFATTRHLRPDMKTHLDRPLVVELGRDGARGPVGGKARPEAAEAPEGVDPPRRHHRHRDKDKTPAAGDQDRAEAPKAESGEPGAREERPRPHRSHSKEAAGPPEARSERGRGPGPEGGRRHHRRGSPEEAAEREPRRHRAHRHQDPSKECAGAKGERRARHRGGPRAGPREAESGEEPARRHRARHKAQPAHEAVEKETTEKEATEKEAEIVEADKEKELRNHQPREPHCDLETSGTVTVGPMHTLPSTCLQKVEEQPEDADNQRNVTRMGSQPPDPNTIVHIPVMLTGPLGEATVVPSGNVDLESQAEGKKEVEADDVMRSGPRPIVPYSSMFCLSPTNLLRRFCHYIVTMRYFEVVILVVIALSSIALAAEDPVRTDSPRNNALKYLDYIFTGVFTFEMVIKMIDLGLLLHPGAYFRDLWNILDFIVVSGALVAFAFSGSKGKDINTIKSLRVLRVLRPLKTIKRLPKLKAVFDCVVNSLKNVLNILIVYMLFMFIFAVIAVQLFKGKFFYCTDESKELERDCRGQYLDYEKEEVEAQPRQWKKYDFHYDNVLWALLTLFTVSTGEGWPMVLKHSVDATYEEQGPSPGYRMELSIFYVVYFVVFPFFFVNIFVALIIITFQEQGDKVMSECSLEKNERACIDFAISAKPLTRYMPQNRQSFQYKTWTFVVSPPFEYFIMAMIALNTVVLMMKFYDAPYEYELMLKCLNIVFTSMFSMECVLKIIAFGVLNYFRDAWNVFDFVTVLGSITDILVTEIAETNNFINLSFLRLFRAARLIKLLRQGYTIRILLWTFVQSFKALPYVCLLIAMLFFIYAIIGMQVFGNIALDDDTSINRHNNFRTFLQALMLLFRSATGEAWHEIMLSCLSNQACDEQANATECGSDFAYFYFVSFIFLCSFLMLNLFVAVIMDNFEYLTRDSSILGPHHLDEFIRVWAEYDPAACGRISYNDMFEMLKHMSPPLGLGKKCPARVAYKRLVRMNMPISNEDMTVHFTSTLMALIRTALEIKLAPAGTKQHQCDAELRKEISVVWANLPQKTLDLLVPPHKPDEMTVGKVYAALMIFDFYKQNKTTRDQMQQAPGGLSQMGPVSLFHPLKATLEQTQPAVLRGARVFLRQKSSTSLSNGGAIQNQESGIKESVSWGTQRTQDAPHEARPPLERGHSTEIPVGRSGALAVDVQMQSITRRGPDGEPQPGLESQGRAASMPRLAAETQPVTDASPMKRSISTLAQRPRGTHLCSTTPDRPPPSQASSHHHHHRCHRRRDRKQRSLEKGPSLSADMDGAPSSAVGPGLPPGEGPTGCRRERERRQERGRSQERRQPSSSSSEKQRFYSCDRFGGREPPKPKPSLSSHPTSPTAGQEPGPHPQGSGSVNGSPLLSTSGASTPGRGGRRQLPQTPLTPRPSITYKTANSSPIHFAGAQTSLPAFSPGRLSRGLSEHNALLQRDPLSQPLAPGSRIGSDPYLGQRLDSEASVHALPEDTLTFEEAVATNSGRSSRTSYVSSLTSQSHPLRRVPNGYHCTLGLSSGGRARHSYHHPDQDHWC
T4 sequence (Q02410 whole entry): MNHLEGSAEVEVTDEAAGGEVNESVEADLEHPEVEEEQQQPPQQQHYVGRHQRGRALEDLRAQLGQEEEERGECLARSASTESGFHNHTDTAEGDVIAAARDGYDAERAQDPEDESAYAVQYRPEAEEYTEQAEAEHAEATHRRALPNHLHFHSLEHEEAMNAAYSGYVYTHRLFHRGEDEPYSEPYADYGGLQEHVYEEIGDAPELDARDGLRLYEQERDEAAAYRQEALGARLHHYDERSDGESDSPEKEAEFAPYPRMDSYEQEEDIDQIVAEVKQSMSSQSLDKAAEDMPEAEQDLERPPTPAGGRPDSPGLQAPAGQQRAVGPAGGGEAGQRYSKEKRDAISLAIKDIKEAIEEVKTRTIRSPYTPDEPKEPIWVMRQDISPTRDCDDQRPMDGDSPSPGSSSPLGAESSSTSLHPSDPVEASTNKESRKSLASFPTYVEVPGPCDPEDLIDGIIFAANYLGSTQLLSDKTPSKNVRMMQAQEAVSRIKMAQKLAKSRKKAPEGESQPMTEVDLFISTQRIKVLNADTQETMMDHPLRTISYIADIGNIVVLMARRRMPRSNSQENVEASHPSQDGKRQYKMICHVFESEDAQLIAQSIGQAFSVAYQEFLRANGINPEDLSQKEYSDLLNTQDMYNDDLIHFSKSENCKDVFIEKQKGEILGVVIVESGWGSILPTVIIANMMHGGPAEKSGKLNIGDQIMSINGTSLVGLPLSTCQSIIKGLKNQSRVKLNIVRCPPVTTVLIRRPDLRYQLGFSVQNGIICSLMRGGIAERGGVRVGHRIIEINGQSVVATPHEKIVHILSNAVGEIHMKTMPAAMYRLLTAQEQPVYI
T7 sequence (P63165 whole entry): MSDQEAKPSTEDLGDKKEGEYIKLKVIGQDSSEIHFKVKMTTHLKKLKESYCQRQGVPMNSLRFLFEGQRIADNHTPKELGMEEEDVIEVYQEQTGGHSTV
Chain of Cytochrome P450 2D6 (P10635 whole entry): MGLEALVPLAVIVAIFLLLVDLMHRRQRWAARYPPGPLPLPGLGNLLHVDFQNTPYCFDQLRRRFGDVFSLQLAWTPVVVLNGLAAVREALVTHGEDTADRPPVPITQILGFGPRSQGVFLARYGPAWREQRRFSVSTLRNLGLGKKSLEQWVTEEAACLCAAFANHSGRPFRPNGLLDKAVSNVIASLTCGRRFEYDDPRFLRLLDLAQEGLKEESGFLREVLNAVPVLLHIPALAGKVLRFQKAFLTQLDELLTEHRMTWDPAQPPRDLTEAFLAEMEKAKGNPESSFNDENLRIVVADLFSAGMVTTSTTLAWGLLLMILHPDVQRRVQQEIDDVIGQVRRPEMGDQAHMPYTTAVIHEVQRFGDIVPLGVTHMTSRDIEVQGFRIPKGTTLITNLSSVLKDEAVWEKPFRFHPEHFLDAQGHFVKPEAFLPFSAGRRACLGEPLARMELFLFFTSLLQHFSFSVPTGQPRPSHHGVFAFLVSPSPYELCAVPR
Chain of Eukaryotic translation initiation factor 4E (P63073 whole entry): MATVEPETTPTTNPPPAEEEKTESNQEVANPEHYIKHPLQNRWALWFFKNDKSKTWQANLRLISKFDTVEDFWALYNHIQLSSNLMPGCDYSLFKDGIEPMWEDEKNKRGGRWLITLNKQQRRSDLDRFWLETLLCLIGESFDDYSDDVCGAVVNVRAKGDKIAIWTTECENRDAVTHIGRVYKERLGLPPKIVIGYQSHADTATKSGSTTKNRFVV

Compound: O=C(Cn1ncc(Cl)c(Cl)c1=O)NC1CCCCC1
- AC50 [1]: > 35 µM (active)
- AC50 [2]: 6.82 µM (active)
- AC50 [3]: > 35 µM (active)

Compound: Clc1nss/c1=N\c1ccc(Br)cc1
- CC50 [4]: 100 µM (active)
- IC50 [5]: 37.5 µM (active)
- IC50 [6]: > 100 µM (inactive)
- IC50 [7]: 4.16 µM (active)
- IC50 [8]: 50 µM (inactive)
- Absolute IC50 (XBP1) [9]: < 10 µM
- AC50 [10]: 24.4 µM (active)
- IC50 [11]: 7.28 µM (active)
- IC50 [12]: > 50 µM (not active)
- IC50 [13]: 11.6 µM (active)

Compound: Cn1ccc(=Nc2ccc(NC(=O)c3ccc(/N=c4\ccn(C)c5ccc([N+](=O)[O-])cc45)cc3)cc2)cc1
- AC50 [14]: 12 µM (active)
- IC50 [5]: 35.5 µM (active)
- IC50 [15]: > 66.6 µM (inactive)
- AC50 [16]: 1.28 µM (active)
- EC50 [17]: 15.3 µM (active)
- EC50 [18]: 28 µM (inconclusive)
- EC50 [19]: 2.47 µM (active)
- IC50 [20]: 13.1 µM (active)
- EC50 [21]: 18 µM (inconclusive)
- EC50 [22]: > 150 µM (inconclusive)
- EC50 [23]: 17.1 µM (active)
- EC50 [24]: 0.976 µM (active)

Compound: O=C(N/N=C/c1cc([N+](=O)[O-])ccc1N1CCNCC1)c1ccc([N+](=O)[O-])cc1
- AC50 [1]: 24.1 µM (active)
- AC50 [25]: 25.1 µM (inconclusive)
- AC50 [2]: 8.19 µM (active)
- EC50 [26]: 11.1 µM (active)
- EC50 [27]: 12.1 µM (active)
